From US6355799B1, “Substituted benzene compounds, process for their preparation, and herbicidal and defoliant compositions containing them” (ISK Americas Incorporated, priority 1997, dated 2002)

Assays:
Format in all cases: in vivo
[1] = test system: field corn (Zea mays L., var. Dekalb 535, CORN); test: Pre-emerge test, crop safety; settings: pre-emerge; for phytotoxicity rating CORN: 14 days after application, rating scale 0-100; for Pre-emerge Herbicidal Activity CORN: crop damage, phytotoxicity rating 0-100 at 14 days after application
Outline: (§1)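 Sandy loam pots; pre-emerge: sown 1 d pre-spray, surface-watered after, then bottom-watered. Post-emerge: sown 8–21 d before, 2–3 leaf stage, + 0.25% v/v NIS, bottom-watered. Acetone, 187 l/ha track spray, 15–1000 g ai/ha. 0–100 injury score, day 14.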

[2] = test system: upland rice (Oryza sp., var. Tebonnet, RICE); test: Pre-emerge test, crop safety; settings: pre-emerge; for phytotoxicity rating RICE: 14 days after application, rating scale 0-100; for Pre-emerge Herbicidal Activity RICE: crop damage, phytotoxicity rating 0-100 at 14 days after application
Outline: as §1

[3] = test system: velvetleaf (Abutilon theophrasti, ABUTH); test: Pre-emerge test, greenhouse herbicide activity screening; settings: pre-emerge; for phytotoxicity rating ABUTH: 14 days after application, rating scale 0-100; for Pre-emerge Herbicidal Activity ABUTH: phytotoxicity rating 0-100 at 14 days after application
Outline: (§2)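 Plants grown in 10 cm pots of sandy loam mix received acetone-dissolved compounds through a moving flat-fan nozzle. Doses ranged from 15 to 1000 g ai/ha. Pre-emerge pots were seeded one day earlier, post-emerge pots 8–21 days earlier. Fourteen days on, each pot was graded 0–100 for damage.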

[4] = test system: large crabgrass (Digitaria sanguinalis, DIGSA); test: as above; settings: pre-emerge; for phytotoxicity rating DIGSA: 14 days after application, rating scale 0-100; for Pre-emerge Herbicidal Activity DIGSA: phytotoxicity rating 0-100 at 14 days after application
Outline: as §2

[5] = test system: barnyardgrass (Echinochloa crus-galli, ECHCG); test: as above; settings: pre-emerge; for phytotoxicity rating ECHCG: 14 days after application, rating scale 0-100; for Pre-emerge Herbicidal Activity ECHCG: phytotoxicity rating 0-100 at 14 days after application
Outline: as §2

[6] = test system: ivyleaf morningglory (Ipomoea hederacea, IPOHE); test: as above; settings: pre-emerge; for phytotoxicity rating IPOHE: 14 days after application, rating scale 0-100; for Pre-emerge Herbicidal Activity IPOHE: phytotoxicity rating 0-100 at 14 days after application
Outline: as §2

[7] = test system: sicklepod (Cassia obtusifolia, CASOB); test: as above; settings: pre-emerge; for phytotoxicity rating CASOB: 14 days after application, rating scale 0-100; for Pre-emerge Herbicidal Activity CASOB: phytotoxicity rating 0-100 at 14 days after application
Outline: as §2

[8] = test system: lambsquarters (Chenopodium album, CHEAL); test: as above; settings: pre-emerge; for phytotoxicity rating CHEAL: 14 days after application, rating scale 0-100; for Pre-emerge Herbicidal Activity CHEAL: phytotoxicity rating 0-100 at 14 days after application
Outline: as §2

[9] = test system: johnsongrass (Sorghum halepense, SORHA); test: as above; settings: pre-emerge; for phytotoxicity rating SORHA: 14 days after application, rating scale 0-100; for Pre-emerge Herbicidal Activity SORHA: phytotoxicity rating 0-100 at 14 days after application
Outline: as §2

[10] = test system: green foxtail (Setaria viridis, SETVI); test: as above; settings: pre-emerge; for phytotoxicity rating SETVI: 14 days after application, rating scale 0-100; for Pre-emerge Herbicidal Activity SETVI: phytotoxicity rating 0-100 at 14 days after application
Outline: as §2

[11] = test system: redroot pigweed (Amaranthus retroflexus, AMARE); test: as above; settings: pre-emerge; for phytotoxicity rating AMARE: 14 days after application, rating scale 0-100; for Pre-emerge Herbicidal Activity AMARE: phytotoxicity rating 0-100 at 14 days after application
Outline: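 Compounds in acetone were track-sprayed at 15-1000 g ai/ha (187 l/ha) on sandy loam pots: pre-emerge one day after seeding, post-emerge at 2-3 leaf stage with 0.25% v/v non-ionic surfactant. Phytotoxicity was rated 14 days later on a 0 (no damage) to 100 (complete death) scale.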

[12] = test system: velvetleaf (Abutilon theophrasti, ABUTH); test: Post-emerge test, greenhouse herbicide activity screening; settings: post-emerge, 14 days after application, rating scale 0-100
Text: (§3) A standard greenhouse herbicide activity screening system was used to evaluate the herbicidal efficacy and crop safety of these test compounds. Seven broadleaf weed species including redroot pigweed (Amaranthus retroflexus, AMARE, velvetleaf (Abutilon theophrasti, ABUTH), sicklepod (Cassia obtusifolia, CASOB), ivyleaf morningglory (Ipomoea hederacea, IPOHE), lambsquarters (Chenopodium album, CHEAL), common ragweed (Ambrosia artemisizfolia L., AMBEL), and cocklebur (Xanthium strumarium, XANST) were used as test species. Four grass weed species including green foxtail (Setaria viridis, SETVI), barnyardgrass (Echinochloa crus-galli, ECHCG), johnsongrass (Sorghum halepense, SORHA), and large crabgrass (Digitaria sanguinalis, DIGSA) were also used. In addition, three crop species, field corn (Zea mays L., var. Dekalb 535, CORN), soybean (Glycine max L., var. Pella 86, SOY), and is upland rice (Oryza sp., var. Tebonnet, RICE) were included.
(§4) All plants were grown in 10 cm square plastic pots which were filled with a sandy loam soil mix. For pre-emerge tests, seeds were planted one day prior to application of the test compounds. For post-emerge tests, seeds were planted 8-21 days prior to the test to allow emergence and good foliage development prior to application of the test substances. At the time of the post-emerge application, plants of all species were usually at the 2-3 leaf stage of development.
(§5) All test compounds Were dissolved in acetone and applied to the test units in a volume of 187 l /ha. Test materials were applied at rates ranging from 15 g ai/ha to 1000 g ai/ha using a track sprayer equipped with a TJ8001E even flow flat fan spray nozzle. Plants were arranged on a shelf so that the top of the canopy (post-emerge) or top of the soil surface (pre-emerge) was 40-45 cm below the nozzle. Pressurized air was used to force the test solution through the nozzle as it was mechanically advanced (via electrically driven chain drive) over the top of all test plants/pots. This application simulates a typical commercial field herbicide application.
(§6) In the post-emerge test, a commercial non-ionic surfactant was also included (0.25% v/v) to enhance wetting of the leaf surfaces of target plants. Immediately after application, test units of the pre-emerge applications were watered at the soil surface to incorporate the test materials. Subsequently, these test units were bottom-watered. Post-emerge test units were always bottom-watered.
(§7) At 14 days after application of the test materials, phytotoxicity ratings were recorded. A rating scale of 0-100 was used as previously described in Research Methods in Weed Science, 2nd edition, B. Truelove, Ed., Southern Weed Science Society, Auburn University, Auburn, Ala. 1977. Briefly, “0” corresponds to no damage and “100” corresponds to complete death of all plants in the test unit. This scale was used both to determine efficacy against weed species and damage to crop species. Herbicide activity data for various compounds of this invention, which are shown by compound No. in Tables 1-8, are shown in Tables 11 and 12.

[13] = test system: large crabgrass (Digitaria sanguinalis, DIGSA); test: as above; settings: post-emerge, 14 days after application, rating scale 0-100
Text: as §3, §4, §5, §6, §7

[14] = test system: barnyardgrass (Echinochloa crus-galli, ECHCG); test: as above; settings: post-emerge, 14 days after application, rating scale 0-100
Text: as §3, §4, §5, §6, §7

[15] = test system: redroot pigweed (Amaranthus retroflexus, AMARE); test: as above; settings: post-emerge, 14 days after application
Text: as §3, §4, §5, §6, §7

[16] = test system: ivyleaf morningglory (Ipomoea hederacea, IPOHE); test: as above; settings: post-emerge, 14 days after application, rating scale 0-100
Text: as §3, §4, §5, §6, §7

[17] = test system: sicklepod (Cassia obtusifolia, CASOB); test: as above; settings: post-emerge, 14 days after application, rating scale 0-100
Text: as §3, §4, §5, §6, §7

[18] = test system: green foxtail (Setaria viridis, SETVI); test: as above; settings: post-emerge, 14 days after application, rating scale 0-100
Text: as §3, §4, §5, §6, §7

[19] = test system: field corn (Zea mays L., var. Dekalb 535, CORN); test: Post-emerge test, crop safety; settings: post-emerge, 14 days after application, rating scale 0-100
Outline: (§8)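 Each test used a mechanized track sprayer delivering 187 l/ha of acetone solution at 15–1000 g ai/ha. Post-emerge foliage at 2–3 leaves was treated with added 0.25% v/v non-ionic surfactant and bottom-watered only. Injury was assessed on day 14, where 100 means total kill.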

[20] = test system: upland rice (Oryza sp., var. Tebonnet, RICE); test: Post-emerge test, crop safety; settings: post-emerge, 14 days after application, rating scale 0-100
Outline: as §8

CCOC(=O)NNc1c(OC)c(Cl)cc(F)c1-n1c(=O)cc(C(F)(F)F)n(C)c1=O [15-6]
phytotoxicity rating CORN ([1]; 63 g ai/ha): 95 | phytotoxicity rating CORN ([1]; 250 g ai/ha): 100 | phytotoxicity rating RICE ([2]; 63 g ai/ha): 98 | phytotoxicity rating RICE ([2]; 250 g ai/ha): 100 | phytotoxicity rating ABUTH ([3]; 63 g ai/ha): 100 | phytotoxicity rating ABUTH ([3]; 250 g ai/ha): 100 | phytotoxicity rating DIGSA ([4]; 63 g ai/ha): 100 | phytotoxicity rating DIGSA ([4]; 250 g ai/ha): 100 | phytotoxicity rating ECHCG ([5]; 63 g ai/ha): 99 | phytotoxicity rating ECHCG ([5]; 250 g ai/ha): 100 | phytotoxicity rating IPOHE ([6]; 63 g ai/ha): 100 | phytotoxicity rating IPOHE ([6]; 250 g ai/ha): 100 | phytotoxicity rating CASOB ([7]; 63 g ai/ha): 90 | phytotoxicity rating CASOB ([7]; 250 g ai/ha): 100 | phytotoxicity rating CHEAL ([8]; 63 g ai/ha): 100 | phytotoxicity rating CHEAL ([8]; 250 g ai/ha): 100 | phytotoxicity rating SORHA ([9]; 63 g ai/ha): 100 | phytotoxicity rating SORHA ([9]; 250 g ai/ha): 100 | phytotoxicity rating SETVI ([10]; 63 g ai/ha): 99 | phytotoxicity rating SETVI ([10]; 250 g ai/ha): 100 | phytotoxicity rating AMARE ([11]; 63 g ai/ha): 100 | phytotoxicity rating AMARE ([11]; 250 g ai/ha): 100 | Post-emerge Herbicidal Activity ABUTH (phytotoxicity rating) ([12]; 63 g ai/ha): 100 | Post-emerge Herbicidal Activity ABUTH (phytotoxicity rating) ([12]; 250 g ai/ha): 100 | Post-emerge Herbicidal Activity DIGSA (phytotoxicity rating) ([13]; 63 g ai/ha): 0 | Post-emerge Herbicidal Activity DIGSA (phytotoxicity rating) ([13]; 250 g ai/ha): 90 | Post-emerge Herbicidal Activity ECHCG (phytotoxicity rating) ([14]; 63 g ai/ha): 20 | Post-emerge Herbicidal Activity ECHCG (phytotoxicity rating) ([14]; 250 g ai/ha): 95 | Post-emerge Herbicidal Activity AMARE (phytotoxicity rating) ([15]; 63 g ai/ha, rating scale 0-100 (0 no damage, 100 complete death)): 50 | Post-emerge Herbicidal Activity AMARE (phytotoxicity rating) ([15]; 250 g ai/ha, rating scale 0-100): 85 | Post-emerge Herbicidal Activity IPOHE (phytotoxicity rating) ([16]; 63 g ai/ha): 50 | Post-emerge Herbicidal Activity IPOHE (phytotoxicity rating) ([16]; 250 g ai/ha): 100 | Post-emerge Herbicidal Activity CASOB (phytotoxicity rating) ([17]; 63 g ai/ha): 30 | Post-emerge Herbicidal Activity CASOB (phytotoxicity rating) ([17]; 250 g ai/ha): 70 | Post-emerge Herbicidal Activity SETVI (phytotoxicity rating) ([18]; 63 g ai/ha): 30 | Post-emerge Herbicidal Activity SETVI (phytotoxicity rating) ([18]; 250 g ai/ha): 75 | Post-emerge Herbicidal Activity CORN (crop damage rating) ([19]; 63 g ai/ha): 25 | Post-emerge Herbicidal Activity CORN (crop damage rating) ([19]; 250 g ai/ha): 80 | Post-emerge Herbicidal Activity RICE (crop damage rating) ([20]; 63 g ai/ha): 60 | Post-emerge Herbicidal Activity RICE (crop damage rating) ([20]; 250 g ai/ha): 95

CC(C)Oc1c(Cl)cc(Cl)c(-n2nnn(CCCF)c2=O)c1N [Compound 5-16]
Pre-emerge Herbicidal Activity CORN ([1]; rate 63 g ai/ha): 0 | Pre-emerge Herbicidal Activity CORN ([1]; rate 250 g ai/ha): 0 | Pre-emerge Herbicidal Activity RICE ([2]; rate 63 g ai/ha): 0 | Pre-emerge Herbicidal Activity RICE ([2]; rate 250 g ai/ha): 0 | Pre-emerge Herbicidal Activity ABUTH ([3]; rate 63 g ai/ha): 0 | Pre-emerge Herbicidal Activity ABUTH ([3]; rate 250 g ai/ha): 0 | Pre-emerge Herbicidal Activity DIGSA ([4]; rate 63 g ai/ha): 0 | Pre-emerge Herbicidal Activity DIGSA ([4]; rate 250 g ai/ha): 0 | Pre-emerge Herbicidal Activity ECHCG ([5]; rate 63 g ai/ha): 0 | Pre-emerge Herbicidal Activity ECHCG ([5]; rate 250 g ai/ha): 0 | Pre-emerge Herbicidal Activity IPOHE ([6]; rate 63 g ai/ha): 0 | Pre-emerge Herbicidal Activity IPOHE ([6]; rate 250 g ai/ha): 0 | Pre-emerge Herbicidal Activity CASOB ([7]; rate 63 g ai/ha): 0 | Pre-emerge Herbicidal Activity CASOB ([7]; rate 250 g ai/ha): 0 | Pre-emerge Herbicidal Activity CHEAL ([8]; rate 63 g ai/ha): 0 | Pre-emerge Herbicidal Activity CHEAL ([8]; rate 250 g ai/ha): 20 | Pre-emerge Herbicidal Activity SORHA ([9]; rate 63 g ai/ha): 0 | Pre-emerge Herbicidal Activity SORHA ([9]; rate 250 g ai/ha): 0 | Pre-emerge Herbicidal Activity SETVI ([10]; rate 63 g ai/ha): 0 | Pre-emerge Herbicidal Activity SETVI ([10]; rate 250 g ai/ha): 0 | Pre-emerge Herbicidal Activity AMARE ([11]; rate 63 g ai/ha): 0 | Pre-emerge Herbicidal Activity AMARE ([11]; rate 250 g ai/ha): 0
